Measured values from PMC2946983 (Bioorganic & medicinal chemistry, 2010).

Columns and labels:
[1] = test system: human serotonin 5-HT2C receptor; conditions: isolated natural product; cited from earlier work
[2] = target: T1, cloned human serotonin 5-HT1A receptor (Homo sapiens, UniProt P08908); experiment: radioligand binding; conditions: for affinity for 5-HT1A receptor: stated in words
T1 sequence (P08908 1-422): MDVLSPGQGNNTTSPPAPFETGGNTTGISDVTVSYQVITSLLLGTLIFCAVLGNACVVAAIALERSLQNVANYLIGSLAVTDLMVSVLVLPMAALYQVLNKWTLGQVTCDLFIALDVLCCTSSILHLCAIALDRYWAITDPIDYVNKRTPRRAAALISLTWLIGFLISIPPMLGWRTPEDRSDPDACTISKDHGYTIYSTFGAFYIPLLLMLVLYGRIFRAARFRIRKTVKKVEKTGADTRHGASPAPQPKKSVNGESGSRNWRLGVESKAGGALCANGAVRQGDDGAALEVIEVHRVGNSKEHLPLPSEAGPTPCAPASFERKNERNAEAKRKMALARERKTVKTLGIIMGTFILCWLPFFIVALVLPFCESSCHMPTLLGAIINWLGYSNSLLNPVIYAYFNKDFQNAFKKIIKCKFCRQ

[3] = target: cloned human serotonin 5-HT2A receptor (Homo sapiens, UniProt P28223); experiment: radioligand binding; conditions: for Binding Affinity (Ki nM) 5-HT2A±SEM: n = 3, ND = not detected at highest concentration tested
cloned human serotonin 5-HT2A receptor, sequence (P28223 whole entry): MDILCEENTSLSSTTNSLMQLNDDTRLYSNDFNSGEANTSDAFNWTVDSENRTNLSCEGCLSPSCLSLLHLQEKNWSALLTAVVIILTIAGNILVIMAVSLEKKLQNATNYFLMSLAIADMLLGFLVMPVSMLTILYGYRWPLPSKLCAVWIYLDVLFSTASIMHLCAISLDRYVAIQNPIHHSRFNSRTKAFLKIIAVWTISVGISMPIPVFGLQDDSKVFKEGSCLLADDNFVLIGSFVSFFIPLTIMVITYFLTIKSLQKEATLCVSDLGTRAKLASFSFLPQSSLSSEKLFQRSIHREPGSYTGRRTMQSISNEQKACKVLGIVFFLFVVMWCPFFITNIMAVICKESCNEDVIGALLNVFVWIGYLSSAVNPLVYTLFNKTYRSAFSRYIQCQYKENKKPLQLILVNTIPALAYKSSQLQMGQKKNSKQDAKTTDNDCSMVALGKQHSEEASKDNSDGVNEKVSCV

[4] = target: T2, cloned human serotonin 5-HT2C receptor (Homo sapiens, UniProt P28335); experiment: radioligand binding
T2 sequence (P28335 33-458): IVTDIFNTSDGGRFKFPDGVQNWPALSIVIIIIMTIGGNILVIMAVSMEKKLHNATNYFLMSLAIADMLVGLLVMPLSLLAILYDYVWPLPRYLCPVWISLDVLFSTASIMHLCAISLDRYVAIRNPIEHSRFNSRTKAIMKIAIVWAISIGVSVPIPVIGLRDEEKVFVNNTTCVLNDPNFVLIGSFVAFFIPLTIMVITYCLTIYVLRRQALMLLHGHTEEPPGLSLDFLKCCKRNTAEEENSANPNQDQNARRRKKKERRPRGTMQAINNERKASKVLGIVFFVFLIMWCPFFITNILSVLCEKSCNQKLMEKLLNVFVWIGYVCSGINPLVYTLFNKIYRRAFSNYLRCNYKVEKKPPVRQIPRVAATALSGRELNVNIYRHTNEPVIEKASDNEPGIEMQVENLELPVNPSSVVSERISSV

[5] = read-out: radioligand affinity KD ± S.D., saturation isotherm

Structure (SMILES): CN1C(=N)NC(=Cc2c[nH]c3cc(Br)ccc23)C1=O [6-bromo-2′-de-N-methylaplysinopsin]
- selectivity for 5-HT2C over 5-HT2A receptor [1]: > 40 fold

Structure (SMILES): CN1C(=N)N(C)/C(=C/c2c[nH]c3cc(Cl)c(Cl)cc23)C1=O [Compound 16, (E)-5-[(5,6-dichloro-1H-indol-3-yl)methylene]-2-imino-1,3-dimethylimidazolidin-4-one]
- affinity for 5-HT1A receptor [2]: no detectable affinity
- Binding Affinity (Ki nM) 5-HT2A±SEM [3]: no detectable affinity

Structure (SMILES): COc1ccccc1N1CCN(CCN(C(=O)c2ccc(F)cc2)c2ccccn2)CC1 [[^3H]MPPF, 4-(2′-Methoxy)-phenyl-1-[2′-(N-2″-pyridinyl)-p-fluorobenzamido]ethyl-piperazine, reference compound]
- Kd [2, 5]: 0.267 ± 0.036 nM

Structure (SMILES): CN1C(=N)N(C)/C(=C/c2c[nH]c3cc(Cl)ccc23)C1=O [Compound 14, (E)-5-[(6-chloro-1H-indol-3yl)methylene]-2-imino-1,3-dimethylimidazolidin-4-one]
- affinity for 5-HT1A receptor [2]: lack of affinity
- Binding Affinity (Ki nM) 5-HT2A±SEM [3]: lack of affinity

Structure (SMILES): CN1CN(c2ccccc2)C2(CCN(CCCC(=O)c3ccc(F)cc3)CC2)C1=O [[^3H]methylspiperone, N-Methyl-8-[4-(4-fluorophenyl)-4-oxobutyl]-1-phenyl-1,3,8-triazaspiro-[4.5]decan-4-one, reference compound]
- Kd [3, 5]: 0.246 ± 0.042 nM

Structure (SMILES): CN1C(=N)N(C)/C(=C/c2c[nH]c3cc(Br)ccc23)C1=O [Compound 15, 5-(6-bromo-1H-indol-3-ylmethylene)-2-imino-1,3-dimethyl-imidazolidin-4-one]
- Binding Affinity (Ki nM) 5-HT2A±SEM [3]: not detectable
- Ki Selectivity Ratio 5-HT2A/5-HT2C [4]: >45

Structure (SMILES): CN1C(=N)NC(=O)/C1=C\c1c[nH]c2cc(Cl)c(Cl)cc12 [Compound 4, (E)-2-amino-5-[(5,6-dichloro-1H-indol-3-yl)methylene]-1-methyl-1H-imidazol-4(5H)-one]
- affinity for 5-HT1A receptor [2]: little or no apparent affinity
- Binding Affinity (Ki nM) 5-HT2A±SEM [3]: little or no apparent affinity
- Binding Affinity (Ki nM) 5-HT2C±SEM ([4]; n = 3): little or no apparent affinity
